Values quoted from earlier work, collected in paper PMC12623819 (Scientific Reports, 2025).

Experiments:
[1] = tested on: nectin-4-expressing cells; details: in vitro
[2] = tested on: cell surface-expressed nectin-4

Question: Which “induction of cell death” value [1] does the source give for “enfortumab vedotin: ADC comprising a human nectin-4 antibody conjugated to the microtubule-disrupting agent MMAE” here?
Answer: The value was “induce cell death in a dose-dependent manner”.

Question: What about the “binding to cell surface-expressed nectin-4” value [2] of the same substance?
Answer: Its value is “high affinity”.
